From patent US5804599A, “Interleukin-1 production inhibiting compound” (Kyowa Hakko Kogyo Co., Ltd., priority 1994, dated 1998)
≈ marks a conversion by molar mass, not a printed value. Like-named read-outs stand apart in the source and are kept apart here.

Columns and labels:
[1] = system: bacteria; settings: in words; cited from earlier work
[2] = system: Bacillus subtilis No. 10707; assay: Antibacterial activity (MIC), agar dilution method; format: cell-based; settings: pH 7.0
Procedure: (§1) Antibacterial activity was determined by an agar dilution method using a medium (pH 7.0) comprising 3 g/l bactotrypton (made by Difco Laboratories), 3 g/l meat extract, 1 g/l yeast extract, 1 g/l glucose and 16 g/l agar.

[3] = system: Enterococcus faecium ATCC 10541; assay: Antibacterial activity (MIC), agar dilution method; format: cell-based; settings: ATCC10541, pH 7.0
Procedure: as §1

[4] = system: Staphylococcus aureus ATCC 6538P; assay: Antibacterial activity (MIC), agar dilution method; format: cell-based; settings: ATCC6538P, pH 7.0
Procedure: as §1

[5] = system: IL-1 β; assay: Inhibiting activity of the production of IL-1 (LPS-stimulated, PMA-differentiated THP-1 cells, ELISA); format: cell-based; settings: Homo sapiens, read-out: IC50 (50% inhibitory concentration) of IL-1 production
Procedure: Inhibiting Activity of the production of IL-1
With respect to Compound (I) of the present invention, the inhibiting activity of production of IL-1 β derived from THP-1 cells (ATCC No. TIB 202) of a human monocyte was examined. The amount of IL-1 β was determined by the ELISA method.
The THP-1 cells were suspended in an RPMI 1640 culture solution comprising 10% inactivated fetal bovine serum at a concentration of 1×10^5 cells/ml. The suspension was charged in a 24-well plate at a volume of 1 ml/well. PMA (phorbol 12-myristate 13-acetate, made by Wako Pure Chemical Industries, Ltd.; final concentration 30 nM) was added thereto, and the mixture was cultured in a mixed gas of 5% CO2 and 95% air at 37° C. for 65 hours. The cells were differentiated in a macrophage form.
The cultivation plate was gently washed with a serum-free RPMI 1640 culture solution to remove the cells not adhered thereto, and the residue was cultured for 4 hours in a serum-free RPMI 1640 culture solution (1 ml/well) to which LPS (lipopolysaccharide, made by Difco Laboratories; a final concentration 25 μg/ml) and a compound to be tested were added simultaneously.
After the completion of the cultivation, the amount of IL-1 β which was released in the cultivated supernatant was determined using an IL-1 β determination kit (made by Amersham Corp.).
Percent inhibition of IL-1 production was calculated using the following equation to obtain IC50 (50% inhibitory concentration).
Percent inhibition of IL-1 production (%) =[(A-B)/(A-C)]×100
A: amount of IL-1 produced when only LPS is added
B: amount of IL-1 produced when LPS and the compound to be tested are added
C: amount of IL-1 when LPS is not added

[6] = Solubility
[7] = IL-1 β release from THP-1 cells, LPS 25 μg/ml, 4 hours, serum-free RPMI 1640

| MIC [2] | MIC [3] | MIC [4] | SMILES | antibacterial activity [1] | also measured |
| --- | --- | --- | --- | --- | --- |
|  |  |  | O=C(/C=C/C=C/C1CCCCC1)NC1=CC(O)(/C=C/C=C/C=C/C(=O)NC2=C(O)CCC2=O)C2OC2C1=O (stereo not drawn) [Alisamycin] | known to exhibit antibacterial activity |  |
| 20 µg/mL (≈ 40.4 µM) | 20 µg/mL (≈ 40.4 µM) | 20 µg/mL (≈ 40.4 µM) | CC(C)C/C=C/C=C/C(=O)NC1=CC(O)(/C=C/C=C/C=C/C(=O)NC2=C(O)CCC2=O)C2OC2C1=O (stereo not drawn) [EI-1511-3] |  | IC50 [5, 7]: 5.4 µM; Solubility ([6]; in acetone): easily soluble; Solubility ([6]; in dimethyl sulfoxide): easily soluble; Solubility ([6]; in methanol): soluble |
| 5 µg/mL (≈ 10.1 µM) | 20 µg/mL (≈ 40.3 µM) | 10 µg/mL (≈ 20.1 µM) | CCCCC(C)/C=C/C(=O)NC1=CC(O)(/C=C/C=C/C=C/C(=O)NC2=C(O)CCC2=O)C2OC2C1=O (stereo not drawn) [EI-1625-2] |  | IC50 [5, 7]: 5.4 µM |
|  |  |  | CCCC[C@@H](C)/C=C(C)/C=C(\C)C(=O)NC1=C[C@@](O)(/C=C/C=C/C=C/C(=O)NC2=C(O)CCC2=O)[C@@H]2O[C@@H]2C1=O [Manumycin A] | known to exhibit antibacterial activity |  |
|  |  |  | CCCCC(C)/C=C(\C)C(=O)NC1=CC(O)(/C=C/C=C/C=C/C(=O)NC2=C(O)CCC2=O)C2OC2C1=O (stereo not drawn) [Manumycin B] | known to exhibit antibacterial activity |  |
|  |  |  | CCCCC(C)/C=C(C)/C=C/C(=O)NC1=CC(O)(/C=C/C=C/C=C/C(=O)NC2=C(O)CCC2=O)C2OC2C1=O (stereo not drawn) [Manumycin C] | known to exhibit antibacterial activity |  |
|  |  |  | CC(C)/C=C/C=C/C=C/C(=O)NC1=C[C@@](O)(/C=C/C=C/C=C/C(=O)NC2=C(O)CCC2=O)C2OC2C1=O (stereo partly drawn) [Manumycin G] | known to exhibit antibacterial activity |  |
|  |  |  | CC(C)C/C=C/C=C/C=C/C(=O)NC1=CC(O)(/C=C/C=C/C=C/C(=O)NC2=C(O)CCC2=O)C2OC2C1=O (stereo not drawn) [U-56407] | known to exhibit antibacterial activity |  |

| SMILES | MIC [2] | MIC [3] | MIC [4] | antibacterial activity [1] | also measured |
| --- | --- | --- | --- | --- | --- |
| CCC(C)/C=C/C=C/C=C/C(=O)NC1=CC(O)(/C=C/C=C/C=C/C(=O)NC2=C(O)CCC2=O)C2OC2C1=O (stereo not drawn) [EI-1511-5] | 20 µg/mL (≈ 38.4 µM) | 20 µg/mL (≈ 38.4 µM) | 20 µg/mL (≈ 38.4 µM) |  | IC50 ([5]; THP-1, 4 h): 3.6 µM; Solubility ([6]; in acetone): easily soluble; Solubility ([6]; in dimethyl sulfoxide): easily soluble; Solubility ([6]; in methanol): soluble |
